Reference: PubChem BioAssay (NCI)
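A five-concentration, 48-hour dose response in 96-well plates underlies each endpoint, interpolated linearly between surrounding concentrations. GI50 is the concentration that inhibits growth by half. TGI: total growth inhibition.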

Columns and labels:
Assay in all cases: NCI-60 cell line screen, 48 h
COLO 205 colon = system: COLO 205 colon
K-562 leukemia = system: K-562 leukemia
CCRF-CEM leukemia = system: CCRF-CEM leukemia
MCF7 breast = system: MCF7 breast
SW-620 colon = system: SW-620 colon
OVCAR-3 ovarian = system: OVCAR-3 ovarian
LOX IMVI melanoma = system: LOX IMVI melanoma
A549 NSCLC = system: A549 NSCLC
HT29 colon = system: HT29 colon
UACC-62 melanoma = system: UACC-62 melanoma
ACHN renal = system: ACHN renal
RPMI-8226 leukemia = system: RPMI-8226 leukemia
SR leukemia = system: SR leukemia
SF-295 CNS = system: SF-295 CNS
U251 CNS = system: U251 CNS
UO-31 renal = system: UO-31 renal
SNB-75 CNS = system: SNB-75 CNS
HCC-2998 colon = system: HCC-2998 colon
MOLT-4 leukemia = system: MOLT-4 leukemia
A498 renal = system: A498 renal
SK-MEL-5 melanoma = system: SK-MEL-5 melanoma
SK-OV-3 ovarian = system: SK-OV-3 ovarian
NCI-H460 lung = system: NCI-H460 lung
HOP-62 NSCLC = system: HOP-62 NSCLC
NCI/ADR-RES ovarian = system: NCI/ADR-RES ovarian
EKVX NSCLC = system: EKVX NSCLC
UACC-257 melanoma = system: UACC-257 melanoma
NCI-H226 lung = system: NCI-H226 lung
SNB-19 CNS = system: SNB-19 CNS
OVCAR-5 ovarian = system: OVCAR-5 ovarian
RXF 393 renal = system: RXF 393 renal
OVCAR-8 ovarian = system: OVCAR-8 ovarian
PC-3 prostate = system: PC-3 prostate
CAKI-1 renal = system: CAKI-1 renal
SF-539 CNS = system: SF-539 CNS
MDA-MB-435 = system: MDA-MB-435
786-0 renal = system: 786-0 renal
TK-10 renal = system: TK-10 renal
NCI-H522 lung = system: NCI-H522 lung
KM12 colon = system: KM12 colon
DU-145 prostate = system: DU-145 prostate
MALME-3M melanoma = system: MALME-3M melanoma
SK-MEL-2 melanoma = system: SK-MEL-2 melanoma
SK-MEL-28 melanoma = system: SK-MEL-28 melanoma
BT-549 breast = system: BT-549 breast
OVCAR-4 ovarian = system: OVCAR-4 ovarian
T-47D breast = system: T-47D breast
SF-268 CNS = system: SF-268 CNS
HCT-15 colon = system: HCT-15 colon
M14 melanoma = system: M14 melanoma
HOP-92 NSCLC = system: HOP-92 NSCLC
NCI-H23 lung = system: NCI-H23 lung
HCT-116 colon = system: HCT-116 colon
MDA-MB-231 breast = system: MDA-MB-231 breast
HS 578T breast = system: HS 578T breast
HL-60(TB) leukemia = system: HL-60(TB) leukemia
IGROV1 ovarian = system: IGROV1 ovarian
SN12C renal = system: SN12C renal

CN(C)c1ccc(-c2c(NC(C)(C)C)nc3c(OCCc4ccccc4)cccn23)cc1
GI50 (COLO 205 colon): 2.2 µM
TGI (COLO 205 colon): 5.24 µM
GI50 (K-562 leukemia): 3.33 µM
TGI (K-562 leukemia): 39.3 µM
GI50 (CCRF-CEM leukemia): 3.29 µM
TGI (CCRF-CEM leukemia): > 100 µM
GI50 (MCF7 breast): 2.87 µM
TGI (MCF7 breast): 9.82 µM
GI50 (SW-620 colon): 2.94 µM
TGI (SW-620 colon): 22.1 µM
GI50 (OVCAR-3 ovarian): 3.04 µM
TGI (OVCAR-3 ovarian): 12.9 µM
GI50 (LOX IMVI melanoma): 3 µM
TGI (LOX IMVI melanoma): 20.7 µM
GI50 (A549 NSCLC): 3.58 µM
TGI (A549 NSCLC): > 100 µM
GI50 (HT29 colon): 2 µM
TGI (HT29 colon): 5.67 µM
GI50 (UACC-62 melanoma): 3.53 µM
TGI (UACC-62 melanoma): 52.1 µM
GI50 (ACHN renal): 3.24 µM
TGI (ACHN renal): > 100 µM
GI50 (RPMI-8226 leukemia): 2.53 µM
TGI (RPMI-8226 leukemia): 6.74 µM
GI50 (SR leukemia): 3.04 µM
TGI (SR leukemia): 18.7 µM
GI50 (SF-295 CNS): 2.84 µM
TGI (SF-295 CNS): 8.7 µM
GI50 (U251 CNS): 3.24 µM
TGI (U251 CNS): 11.4 µM
GI50 (UO-31 renal): 2.01 µM
TGI (UO-31 renal): 7.22 µM
GI50 (SNB-75 CNS): 1.79 µM
TGI (SNB-75 CNS): 8.55 µM
GI50 (HCC-2998 colon): 3.55 µM
TGI (HCC-2998 colon): > 100 µM
GI50 (MOLT-4 leukemia): 3.46 µM
TGI (MOLT-4 leukemia): 14 µM
GI50 (A498 renal): 2.52 µM
TGI (A498 renal): 7.83 µM
GI50 (SK-MEL-5 melanoma): 1.83 µM
TGI (SK-MEL-5 melanoma): 3.37 µM
GI50 (SK-OV-3 ovarian): 3.08 µM
TGI (SK-OV-3 ovarian): 35.8 µM
GI50 (NCI-H460 lung): 2.99 µM
TGI (NCI-H460 lung): 9.66 µM
GI50 (HOP-62 NSCLC): 3.4 µM
TGI (HOP-62 NSCLC): 16.9 µM
GI50 (NCI/ADR-RES ovarian): 3.09 µM
TGI (NCI/ADR-RES ovarian): > 100 µM
GI50 (EKVX NSCLC): 2.89 µM
TGI (EKVX NSCLC): 9.64 µM
GI50 (UACC-257 melanoma): 2.78 µM
TGI (UACC-257 melanoma): 8.19 µM
GI50 (NCI-H226 lung): 2.72 µM
TGI (NCI-H226 lung): 8.86 µM
GI50 (SNB-19 CNS): 3.43 µM
TGI (SNB-19 CNS): 15.6 µM
GI50 (OVCAR-5 ovarian): 3.22 µM
TGI (OVCAR-5 ovarian): > 100 µM
GI50 (RXF 393 renal): 1.94 µM
TGI (RXF 393 renal): 5.66 µM
GI50 (OVCAR-8 ovarian): 3.04 µM
TGI (OVCAR-8 ovarian): > 100 µM
GI50 (PC-3 prostate): 3.09 µM
TGI (PC-3 prostate): > 100 µM
GI50 (CAKI-1 renal): 2.95 µM
TGI (CAKI-1 renal): 10.5 µM
GI50 (SF-539 CNS): 4.16 µM
TGI (SF-539 CNS): 19.2 µM
GI50 (MDA-MB-435): 3.16 µM
TGI (MDA-MB-435): 18.1 µM
GI50 (786-0 renal): 3.57 µM
TGI (786-0 renal): 15.5 µM
GI50 (TK-10 renal): 2.34 µM
TGI (TK-10 renal): 6.8 µM
GI50 (NCI-H522 lung): 2.59 µM
TGI (NCI-H522 lung): 6.65 µM
GI50 (KM12 colon): 3.3 µM
TGI (KM12 colon): 16.1 µM
GI50 (DU-145 prostate): 4.16 µM
TGI (DU-145 prostate): > 100 µM
GI50 (MALME-3M melanoma): 2.3 µM
TGI (MALME-3M melanoma): 5.95 µM
GI50 (SK-MEL-2 melanoma): 2.31 µM
TGI (SK-MEL-2 melanoma): 4.99 µM
GI50 (SK-MEL-28 melanoma): 3.85 µM
TGI (SK-MEL-28 melanoma): > 100 µM
GI50 (BT-549 breast): 2.98 µM
TGI (BT-549 breast): 8.45 µM
GI50 (OVCAR-4 ovarian): 3.06 µM
TGI (OVCAR-4 ovarian): 12.8 µM
GI50 (T-47D breast): 3.43 µM
TGI (T-47D breast): > 100 µM
GI50 (SF-268 CNS): 3.53 µM
TGI (SF-268 CNS): > 100 µM
GI50 (HCT-15 colon): 3.3 µM
TGI (HCT-15 colon): 24 µM
GI50 (M14 melanoma): 3.48 µM
TGI (M14 melanoma): 75.6 µM
GI50 (HOP-92 NSCLC): 2.09 µM
TGI (HOP-92 NSCLC): 6.15 µM
GI50 (NCI-H23 lung): 2.91 µM
TGI (NCI-H23 lung): 10.9 µM
GI50 (HCT-116 colon): 3.23 µM
TGI (HCT-116 colon): 20.8 µM
GI50 (MDA-MB-231 breast): 2.71 µM
TGI (MDA-MB-231 breast): 7.87 µM
GI50 (HS 578T breast): 2.62 µM
TGI (HS 578T breast): 9.02 µM
GI50 (HL-60(TB) leukemia): 3.13 µM
TGI (HL-60(TB) leukemia): 8.38 µM
GI50 (IGROV1 ovarian): 4.3 µM
TGI (IGROV1 ovarian): > 100 µM
GI50 (SN12C renal): 2.93 µM
TGI (SN12C renal): > 100 µM
